Source: patent publication US10442763B2, “EBNA1 inhibitors and methods using same” (priority 2015, dated 2019)

Target: T1, His-EBNA1 (DNA binding domain of EBNA1, amino acids 459-607) (Epstein-Barr virus, UniProt P03211)
T1 construct: made in house; host or cells: E. coli
Assay: Inhibition of 5'-biotin-oPL4624 binding to His-EBNA1 using Alpha Screen technology
Outline: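 AlphaScreen with 15 nM E. coli-expressed His-EBNA1 (aa 459-607), 0.2 nM biotinylated oPL4624 DNA and 5 μg/mL donor and acceptor beads in 25 mM Tris pH 7.2, 160 mM NaCl, 1 mM MgCl2; compound 3.2 nM–100 μM final. Read after 2 h at RT; inhibition normalised to no-EBNA1 wells, one-site dose-response fit.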

T1 sequence (P03211 459-607): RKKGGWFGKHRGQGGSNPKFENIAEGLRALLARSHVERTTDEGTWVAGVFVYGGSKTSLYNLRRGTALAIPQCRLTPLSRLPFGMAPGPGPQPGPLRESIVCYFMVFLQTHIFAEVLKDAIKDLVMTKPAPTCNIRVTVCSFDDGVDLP

SMILES: O=C(O)c1cccc(C#Cc2ccc(COc3ccc(C(F)(F)F)cc3)cc2)c1-c1ccc2cc[nH]c2c1 [Entry 83]
- IC50: 1 to 10 µM

SMILES: O=C(O)c1cccc(C#Cc2ccc(OC3CCOCC3)cc2)c1-c1cnc2[nH]ccc2c1 [Entry 142]
- IC50: 10 to 100 µM

SMILES: O=C(O)c1cccc(C#Cc2ccc(COc3ccccc3F)cc2)c1-c1ccc2cc[nH]c2c1 [Entry 89]
- IC50: 1 to 10 µM

SMILES: CS(=O)(=O)N1CCC(N2Cc3ccc(C#Cc4cccc(C(=O)O)c4-c4ccc5cc[nH]c5c4)cc3C2)C1 (stereo not drawn) [Entry 68]
- IC50: 1 to 10 µM

SMILES: O=C(O)c1cccc(C#Cc2ccc3ccn(CC4CCOCC4)c3c2F)c1-c1ccc2cc[nH]c2c1 [Entry 36]
- IC50: 1 to 10 µM

SMILES: COC1CCN(C(=O)c2ccc(C#Cc3cccc(C(=O)O)c3-c3ccc4cc[nH]c4c3)cc2)CC1 [Entry 203]
- IC50: 1 to 10 µM

SMILES: CS(=O)(=O)N1CC(CN2CCc3cc(C#Cc4cccc(C(=O)O)c4-c4ccc5cc[nH]c5c4)ccc3C2)C1 [Entry 64]
- IC50: 10 to 100 µM

SMILES: N#Cc1cc(C#Cc2cccc(C(=O)O)c2-c2ccc3cc[nH]c3c2)ccc1OC1CCOCC1 [Entry 103]
- IC50: 1 to 10 µM

SMILES: O=C(O)c1cccc(C#Cc2ccc3ccn(CCN4CCOCC4)c3c2)c1-c1ccc2cc[nH]c2c1 [Entry 1]
- IC50: 10 to 100 µM

SMILES: CS(=O)(=O)c1cccc(OCc2ccc(C#Cc3cccc(C(=O)O)c3-c3ccc4cc[nH]c4c3)cc2)c1 [Entry 98]
- IC50: 1 to 10 µM

SMILES: O=C(O)c1cccc(C#Cc2cnc3c(ccn3CC3CCS(=O)(=O)CC3)c2)c1-c1ccc2cc[nH]c2c1 [Entry 21]
- IC50: 1 to 10 µM

SMILES: CS(=O)(=O)N1CCC(CN2Cc3ccc(C#Cc4cccc(C(=O)O)c4-c4ccc5cc[nH]c5c4)cc3C2)C1 (stereo not drawn) [Entry 70]
- IC50: 1 to 10 µM

SMILES: CC(=O)N1Cc2ccc(C#Cc3cccc(C(=O)O)c3-c3ccc4cc[nH]c4c3)cc2C1 [Entry 56]
- IC50: 1 to 10 µM

SMILES: O=C(O)c1cccc(C#Cc2ccccc2)c1-c1cnc2[nH]ccc2c1 [Entry 139]
- IC50: < 1 µM

SMILES: CN(C)CCCn1ccc2cc(C#Cc3cccc(C(=O)O)c3-c3ccc4cc[nH]c4c3)cnc21 [Entry 5]
- IC50: 10 to 100 µM

SMILES: O=C(NCc1ccc(C#Cc2cccc(C(=O)O)c2-c2ccc3cc[nH]c3c2)cc1)c1ccccc1 [Entry 197]
- IC50: 1 to 10 µM

SMILES: COc1cc(C#Cc2cccc(C(=O)O)c2-c2ccc3cc[nH]c3c2)ccc1CN1CCC(N2CCOCC2)CC1 [Entry 47]
- IC50: 100 to 1000 µM

SMILES: CC(=O)N1CCC(CN2CCc3ccc(C#Cc4cccc(C(=O)O)c4-c4ccc5cc[nH]c5c4)cc3C2)C1 (stereo not drawn) [Entry 63]
- IC50: 10 to 100 µM

SMILES: Nc1nc(-c2ccc(C#Cc3cccc(C(=O)O)c3-c3ccc4cc[nH]c4c3)cc2)cs1 [Entry 121]
- IC50: 1 to 10 µM

SMILES: O=C(O)c1cccc(C#Cc2cnc3c(ccn3CC3CCOCC3)c2)c1-c1ccc2cc[nH]c2c1 [Entry 17]
- IC50: 1 to 10 µM

SMILES: O=C(O)c1cccc(C#Cc2ccc(COc3ccccc3)cc2)c1-c1ccc2cc[nH]c2c1 [Entry 88]
- IC50: 1 to 10 µM

SMILES: CC(=O)N1CCC(Cc2ccc(C#Cc3cccc(C(=O)O)c3-c3ccc4cc[nH]c4c3)cc2)CC1 [Entry 55]
- IC50: 1 to 10 µM

SMILES: CS(=O)(=O)Nc1nc(-c2cccc(C#Cc3cccc(C(=O)O)c3-c3ccc4cc[nH]c4c3)c2)cs1 [Entry 132]
- IC50: < 1 µM

SMILES: O=C(O)c1cccc(C#Cc2ccc(COc3cncnc3)cc2)c1-c1ccc2cc[nH]c2c1 [Entry 96]
- IC50: 1 to 10 µM

SMILES: CS(=O)(=O)N1CCN(Cc2ccc(C#Cc3cccc(C(=O)O)c3-c3ccc4cn[nH]c4c3)cc2)CC1 [Entry 204]
- IC50: 10 to 100 µM

SMILES: CS(=O)(=O)c1ccc(OCc2ccc(C#Cc3cccc(C(=O)O)c3-c3ccc4cc[nH]c4c3)cc2)cc1 [Entry 95]
- IC50: 1 to 10 µM

SMILES: Nc1nc2c(s1)C[C@H](NCc1ccc(C#Cc3cccc(C(=O)O)c3-c3ccc4cc[nH]c4c3)cc1)CC2 [Entry 175]
- IC50: 1 to 10 µM

SMILES: COc1cccc(OCc2ccc(C#Cc3cccc(C(=O)O)c3-c3ccc4cc[nH]c4c3)cc2)c1 [Entry 87]
- IC50: 1 to 10 µM

SMILES: O=C(O)c1cccc(C#Cc2ccc3ccn(CCCN4CCS(=O)(=O)CC4)c3c2)c1-c1ccc2cc[nH]c2c1 [Entry 25]
- IC50: 1 to 10 µM

SMILES: CS(=O)(=O)N1CCC(Cc2ccc(C#Cc3cccc(C(=O)O)c3-c3ccc4cc[nH]c4c3)cc2)CC1 [Entry 52]
- IC50: 1 to 10 µM

SMILES: O=C(O)c1cccc(C#Cc2ccc3cc(CN4CCOCC4)[nH]c3c2)c1-c1ccc2cc[nH]c2c1 [Entry 33]
- IC50: 10 to 100 µM

SMILES: O=C(O)c1cccc(C#Cc2ccc(CN3CCC(F)(F)CC3)cc2)c1-c1ccc2[nH]ccc2c1 [Entry 181]
- IC50: 1 to 10 µM

SMILES: CS(=O)(=O)N1CCC(CN2CCc3cc(C#Cc4cccc(C(=O)O)c4-c4ccc5cc[nH]c5c4)ccc3C2)CC1 [Entry 59]
- IC50: 10 to 100 µM

SMILES: O=C(O)c1cccc(C#Cc2ccc(COc3cccc(C(F)(F)F)c3)cc2)c1-c1ccc2cc[nH]c2c1 [Entry 84]
- IC50: 1 to 10 µM

SMILES: O=C(O)c1cccc(C#Cc2cn(CCN3CCOCC3)c3ncccc23)c1-c1ccc2cc[nH]c2c1 [Entry 10]
- IC50: 10 to 100 µM

SMILES: CC(C)N1CCN(Cc2ccc(C#Cc3cccc(C(=O)O)c3-c3ccc4cc[nH]c4c3)cc2)CC1 [Entry 164]
- IC50: 10 to 100 µM

SMILES: O=C(O)c1cccc(C#Cc2ccc(-c3nn[nH]n3)cc2)c1-c1ccc2cc[nH]c2c1 [Entry 41]
- IC50: < 1 µM

SMILES: CS(=O)(=O)Nc1cccc(CN2CCc3cc(C#Cc4cccc(C(=O)O)c4-c4ccc5cc[nH]c5c4)ccc3C2)c1 [Entry 66]
- IC50: 1 to 10 µM

SMILES: CS(=O)(=O)N1CC2(CCN(Cc3ccc(C#Cc4cccc(C(=O)O)c4-c4ccc5cc[nH]c5c4)cc3)CC2)C1 [Entry 188]
- IC50: 10 to 100 µM

SMILES: NC(=O)c1cccc(OCc2ccc(C#Cc3cccc(C(=O)O)c3-c3ccc4cc[nH]c4c3)cc2)c1 [Entry 82]
- IC50: 1 to 10 µM

SMILES: O=C(O)c1cccc(C#Cc2ccc(CN3CCCC(C(F)(F)F)C3)cc2)c1-c1ccc2cc[nH]c2c1 (stereo not drawn) [Entry 162]
- IC50: 1 to 10 µM

SMILES: CC(=O)N1C2CCC1CC(c1ccc(C#Cc3cccc(C(=O)O)c3-c3ccc4cc[nH]c4c3)cc1)C2 (stereo not drawn) [Entry 3]
- IC50: 10 to 100 µM
